Data from patent US7563813B2, “Iminothiazolidinone derivatives as SFRP-1 antagonists” (Wyeth, priority 2005, dated 2009).

Target: T1, hSFRP-1 (Homo sapiens, UniProt Q8N474)
T1 construct: expressed in transfected cells; host or cells: U2OS osteosarcoma cells (ATCC, HTB 96), transient co-transfection with Wnt 3, Wnt3A or Wnt 1, 16x TCF-tk-Luciferase reporter and CMV-beta-gal
T1 sequence (Q8N474 32-314): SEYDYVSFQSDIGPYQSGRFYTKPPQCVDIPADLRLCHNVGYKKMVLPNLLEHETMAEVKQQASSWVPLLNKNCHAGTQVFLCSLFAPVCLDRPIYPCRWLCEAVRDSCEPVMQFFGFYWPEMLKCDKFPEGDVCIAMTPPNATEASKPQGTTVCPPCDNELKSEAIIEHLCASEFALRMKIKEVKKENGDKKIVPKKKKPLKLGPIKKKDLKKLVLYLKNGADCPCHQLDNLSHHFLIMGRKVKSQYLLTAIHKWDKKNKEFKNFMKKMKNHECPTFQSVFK
Assay: Cell-Based Assay for In Vitro Measurement of SFRP-1/SARP2 Antagonist Activity (U2OS cells, 16x TCF-tk-Luciferase reporter, Wnt + hSFRP-1 co-transfection)
Conditions: initial single dose screening at 10 μM; for fold induction at 10 µM: luciferase reporter activity, fold induction over SFRP-1 control; for Ratio: ratio not defined
Protocol: Cell-Based Assay for In Vitro Measurement of SFRP-1/SARP2 Antagonist Activity
The following cell-based assay can be used to identify inhibitors of SFRP-1.
The osteosarcoma cell line, U2OS (ATCC, HTB 96), was passaged twice a week with growth medium (McCoy's SA medium containing 10% (v/v) fetal calf serum, 2 mM GlutaMAX-1, and 1% (v/v) Penicillin-Streptomycin). The cells were maintained in vented flasks at 37° C. inside a 5% CO2/95% humidified air incubator. One day prior to transfection, the cells were plated with growth medium at 25,000 cells/well into 96-well plates and incubated at 37° C. overnight.
The growth medium was removed, and the cells were washed once with OPTIMEM I (Gibco-BRL) medium (100 μl/well) to remove the serum and antibiotics. The wash medium was removed, and the cells were re-fed with OPTI-MEM I medium (100 μl/well). For each well of cells to be transfected, the following DNA's were diluted together in 25 μl OPTI-MEM I medium: 0.1 μg 16× TCF-tk-Luciferase reporter, 0.02 μg Wnt 3, Wnt3A, Wnt 1 or empty vector (Upstate Biotechnology), 0.075 μg hSFRP-1 or empty vector (pcDNA3.1, Invitrogen), and 0.025 μg CMV-®gal (Clonetech). For each well of cells to be transfected, 1 μl of Lipofectamine 2000 reagent (Invitrogen) was diluted in 25 μl OPTI-MEM I medium and incubated at room temperature for 5 minutes. The diluted DNA's were then combined with the diluted Lipofectamine 2000 (LF2000), and the mixture was incubated at room temperature for 20 minutes. Fifty μl of the DNA-LF 2000 mixture was added to each well, and the plate(s) were incubated at 37° C. in a 5% CO2/95% humidified air incubator for 4 hours. The cells were washed once with 150 μl/well of experimental medium (phenol red-free RPMI Medium 1640 containing 2% fetal bovine serum, 2 mM GlutaMAX-1, and 1% Penicillin-Streptomycin). Finally, the cells were treated overnight at 37° C. with 200 μl/well of experimental medium containing either vehicle (typically DMSO) or diluted compound in replicates of 8 wells/compound.
Initial single dose screening of test compounds was done at 10 μM.
Dose-response experiments were initially performed with the compounds in log increases from 1-10,000 nM. From these dose-response curves, EC50 values were generated.
After treatment, the cells were washed twice with 150 μl/well of PBS without calcium or magnesium and were lysed with 50 μl/well of 1× cell culture lysis reagent (Promega Corporation) on a shaker at room temperature for 30 minutes. Thirty μl aliquots of the cell lysates were transferred to 96-well luminometer plates, and luciferase activity was measured in a MicroLumat PLUS luminometer (EG&G Berthold), or a Victor (PerkinElmer Life Sciences) using […] of luciferase substrate (Promega Corporation). Following the injection of substrate, luciferase activity was measured for 10 seconds after a 1.6 second delay. Similarly, 10 μl aliquots of the cell lysates were transferred to separate 96-well luminometer plates, and 50 μl of Galacton chemiluminescent substrate (Tropix) was added to each well. The plates were covered and incubated on a rotary shaker at room temperature for one hour. ®gal activity was measured in a MicroLumat PLUS luminometer or Victor using 100 μl/well of Light Emission Accelerator (Tropix). Following the injection of the accelerator, ®gal activity was measured for 10 seconds after a 1.6 second delay. The luciferase and ®gal activity data were transferred from the luminometer to a PC and analyzed using the SAS/Excel program. After the luciferase activity was normalized to ®gal, the SAS/Excel program was used to determine the mean and standard deviation of each treatment, to analyze the data for statistical significance, and to determine EC50 values.
As an alternative to co-transfection in a 96 well plate, the U2OS cells were transfected in T225 flasks and the transfected cells were frozen. The frozen cells were thawed and plated on a 96 well plate and the assay was carried out as detailed above. […]

Row | fold induction at 10 µM | Ratio | SMILES
1 | 0.9 | 0.9 | COC(=O)c1cc(-c2ccccc2)sc1NC(=O)CC1SC(=N)NC1=O (stereo not shown) [Example 56, methyl 2-{[(2-imino-4-oxo-1,3-thiazolidin-5-yl)acetyl]amino}-5-phenylthiophene-3-carboxylate]
2 | 0.9 | 0.8 | COC(=O)c1cc(-c2ccc(Cl)cc2)sc1NC(=O)CC1SC(=N)NC1=O (stereo not shown) [Example 57, methyl 5-(4-chlorophenyl)-2-{[(2-imino-4-oxo-1,3-thiazolidin-5-yl)acetyl]amino}thiophene-3-carboxylate]
3 | 0.7 | 0.7 | CCOC(=O)c1c(NC(=O)CC2SC(=N)NC2=O)sc(-c2ccccc2)c1C (stereo not shown) [Example 58, ethyl 2-{[(2-imino-4-oxo-1,3-thiazolidin-5-yl)acetyl]amino}-4-methyl-5-phenylthiophene-3-carboxylate]
4 | 1.1 | 1.4 | CCOC(=O)c1c(NC(=O)CC2SC(=N)NC2=O)sc(Br)c1CBr (stereo not shown) [Example 59, Ethyl 5-bromo-4-(bromomethyl)-2-{[(2-imino-4-oxo-1,3-thiazolidin-5-yl)acetyl]amino}thiophene-3-carboxylate]
5 | 2.7 | 2.4 | CCOC(=O)c1c(NC(=O)CC2SC(=N)NC2=O)sc(Br)c1CNc1ccccc1 (stereo not shown) [Example 60, Ethyl 4-(anilinomethyl)-5-bromo-2-{[(2-imino-4-oxo-1,3-thiazolidin-5-yl)acetyl]amino}thiophene-3-carboxylate]
6 | 0.7 | 1.0 | CCOC(=O)c1c(NC(=O)CC2SC(=N)NC2=O)sc(Br)c1CN(C)c1ccc(Cl)cc1 (stereo not shown) [Example 61, ethyl 5-bromo-4-{[(4-chlorophenyl)(methyl)amino]methyl}-2-{[(2-imino-4-oxo-1,3-thiazolidin-5-yl)acetyl]amino}thiophene-3-carboxylate]
7 | 2 | 2.2 | CCOC(=O)c1c(NC(=O)CC2SC(=N)NC2=O)sc(Br)c1CNc1ccc(F)cc1 (stereo not shown) [Example 62, ethyl 5-bromo-4-{[(4-fluorophenyl)amino]methyl}-2-{[(2-imino-4-oxo-1,3-thiazolidin-5-yl)acetyl]amino}thiophene-3-carboxylate]
8 | 1.5 | 1.1 | CCOC(=O)c1c(NC(=O)CC2SC(=N)NC2=O)sc(Br)c1CNC1CCCC1 (stereo not shown) [Example 63, ethyl 5-bromo-4-[(cyclopentylamino)methyl]-2-{[(2-imino-4-oxo-1,3-thiazolidin-5-yl)acetyl]amino}thiophene-3-carboxylate]
